# A melting point compilation (Tetko et al.; mined from patent text by program, amines drawn as free bases though some values may be those of a salt)
row,Structure (SMILES),melting point [°C]
1,CCCC(=O)C1=C(O)CC(c2cc([N+](=O)[O-])ccc2F)CC1=O (stereo not drawn),132
2,CCCCC1OC(=O)c2cc(NC=O)ccc21 (stereo not drawn),127 to 129
3,Cc1nc2cccc([N+](=O)[O-])c2s1,120 to 121
4,CCCCc1nccn1Cc1ccc2oc(-c3ccccc3C(=O)O)cc2c1,153 to 157
5,CCCCc1oc2ccccc2c1C(=O)c1nc(Br)c(-c2ccc(OC)cc2)o1,62 to 64
6,CCCCCNC(=N)NC(N)=S,98 to 100
7,Cc1cc(F)c(-n2cnc3ccccc3c2=O)cc1SCC(F)(F)F,145 to 147
8,CCCCCCCCCCCc1nc2c(O)c(NC(C)=O)cc(Cl)c2cc1CCCCCCCCCC,120 to 121
9,CN(C=O)[C@@H]1CCCc2ccccc21,53 to 55
10,COC(=O)c1cc2c(C)ccc(C)c2n1C(=O)Oc1ccccc1,83 to 84
11,CSc1ncc2ccc(N)nc2n1,> 250
12,CC(=O)NC[C@H]1CN(c2ccc(C(=O)c3cnc4cc(C)ccn34)cc2)C(=O)O1,254 to 256
13,C=CCC(NC(=O)C(C)(C)C)C(=O)O (stereo not drawn),87 to 88
14,N=C(Nc1cccc(NC(=O)/C=C/c2ccccc2C(F)(F)F)c1)c1ccccc1,82 to 84
15,CC(C)C[C@H](NC(=O)CCc1ccccc1)C(=O)O,129 to 130
16,Nc1sccc1C(=O)c1ccc(F)cc1,178
17,O=C(Cl)c1cc(C#Cc2ccccc2)c(C(=O)Cl)cc1C#Cc1ccccc1,174 to 180
18,CC(=O)Nc1cc(I)c(-c2cc([N+](=O)[O-])c(NC(C)=O)cc2I)cc1[N+](=O)[O-],296 to 298
19,COc1csc(C)c1N,61 to 63
20,OC1(c2ccc(Cl)cc2)CCN(CCCc2nnc3n2CCCCC3)CC1,163
21,Cc1ccc(Nc2nc3ccccc3c3[nH]c(C4CCCC4)nc23)cc1,125 to 126
22,Fc1ccc(Cn2c(NC3CCN(CCc4ccccc4)CC3)nc3ccc(F)cc32)cc1,178
23,COc1ccc2c(c1)C(C(=O)N(Cc1ccc(CO)cc1)c1ccc(C(C)C)cc1)CCC2 (stereo not drawn),143
24,CN1C(=O)Cc2cc(C(=O)CN3CCN(c4ccccc4)CC3)cnc21,136 to 137
25,CCCc1nc2c(N)nc3cc(Br)ccc3c2n1NC(C)C,226 to 228

row,Structure (SMILES),melting point [°C]
1,COC(=O)c1ccc2c(c1)SCCCC2NC(=O)OCc1ccccc1 (stereo not drawn),132 to 134
2,COc1ccc(Cl)cc1C(=O)NCCc1ccc(CC2SC(=O)NC2=O)cc1 (stereo not drawn),182
3,CCOC(=O)c1cc(=O)c(C(=O)c2ccccc2)co1,84 to 86
4,O=C(OCc1ccccc1)N1CCc2c([nH]c3ccccc23)C1c1ccc2c(c1)OCO2 (stereo not drawn),98 to 101
5,O=C1c2ccccc2C(=O)N1Cc1ccccc1-c1noc2ccccc12,142
6,Cc1cc(Oc2c(Cl)cc(C(F)(F)F)cc2Cl)nn1C(=O)NC(C)C,103 to 105
7,CN(C)c1ccc(CN(C(=O)C2CCCc3c(O)cccc32)c2ccccc2)cc1 (stereo not drawn),138 to 143
8,C=CCOc1cc2c(cc1CC=C)N(CC=C(C)C)C(=O)CC2,86 to 88
9,Cc1ccc(-c2cc(-c3ccccc3)cc3c2OC(CN)C3)cc1 (stereo not drawn),159 to 162
10,C=C(Nc1nc(-c2ccccc2)c(-c2nc3ccccc3c(=O)n2-c2ccc(Cl)cc2)s1)c1ccco1,270 to 274
11,CC1CC(=O)NN=C1c1ccc(NC(=O)c2ccccc2O)cc1 (stereo not drawn),218 to 220
12,OCC(=C(c1ccc(F)cc1)c1ccc(F)cc1)n1cnnn1,152 to 154
13,CCCCc1nc(Cl)c(CC(Cc2ccccc2)C(=O)O)n1Cc1ccccc1Cl (stereo not drawn),138 to 139
14,O=C(O)CC1CCc2c(c3ccccc3n2Cc2ccccc2)C1 (stereo not drawn),156 to 158
15,c1cncc(-c2ccc3nncn3c2)c1,200 to 202
16,CN(C)S(=O)(=O)c1cc2c(c(Cl)c1Cl)OC(C(=O)OCC(=O)O)C2 (stereo not drawn),149 to 150
17,COC(=O)C(=O)c1ccc(OCCOc2ccc(C(F)(F)F)cc2)cc1,96 to 98
18,CC(C)(C)CC(C)(C)c1cc(-c2ccccc2)c(O)c(-n2nc3ccc(-c4ccccc4)cc3n2)c1,123 to 125
19,CC(C)[C@H](NC(=O)OCc1ccccn1)C(=O)N[C@@H](Cc1ccccc1)[C@@H](O)C[C@H](Cc1ccccc1)NC(=O)OCc1cccnc1,169 to 171
20,OCCC(O)OCn1cc(I)c2c(Cl)ncnc21 (stereo not drawn),155 to 156
21,COC(=O)C1=C(C)NC(C)=C(C(=O)OCCN2CCN(c3cccc(Cl)c3)CC2)C1c1cccc([N+](=O)[O-])c1 (stereo not drawn),65 to 68
22,CCCn1c(=O)c2[nH]c(/C=C/c3ccc(OCOC)c(OC)c3)nc2n(CCC)c1=O,227
23,COc1ccc(-c2coc3ccc(-c4nnc(SC)o4)cc23)cc1,156 to 157
24,COc1ccccc1-c1cc(C2CCN(Cc3ccc(Cl)cc3)CC2)n[nH]1,102 to 103
25,Cc1cc2c(c(C)c1N)C(c1ccc(C(C)C)cc1)CO2 (stereo not drawn),53 to 55

row,Structure (SMILES),melting point [°C]
1,O=C(O)c1ccc(OCc2ccccc2)c(OCc2ccccc2)c1,184 to 185
2,CCC1=C([N+](=O)[O-])C(c2cccc(Cl)c2Cl)c2c[nH]nc2N1 (stereo not drawn),250
3,COc1ccccc1[N+]1([O-])CCNCC1,157 to 160
4,Cc1nc2c(OCc3ccccc3)nccn2c1C,104 to 110
5,CC(C)c1nsc2c1C(=O)N(C(C)(C)C)C2=O,52 to 53
6,CC=C(C)c1c(-c2ccc(S(C)(=O)=O)cc2)cnn(CC(F)(F)F)c1=O,175 to 180
7,Nc1cc(-c2noc(-c3cnn4c(C(F)(F)F)cc(-c5ccc(Cl)cc5)nc34)n2)ccn1,252
8,CC(OC(=O)c1cc(-n2c(=O)cc(C(F)(F)F)n(C)c2=O)ccc1Cl)C1CC1 (stereo not drawn),118 to 119
9,COC(=O)c1ccc(OCCCN(C(N)=O)c2ccc(Cl)cc2)cc1,141 to 142
10,CCC(Oc1ccc(C(C)(C)CC)cc1C(C)(C)CC)C(=O)Nc1cc(O)c(NC(=O)c2ccccc2NS(C)(=O)=O)cc1Cl (stereo not drawn),199 to 201
11,CC(C)C[C@H](NC(=O)OCc1ccccc1)C(=O)NC(Cc1ccc(F)cc1)C(=O)CSCc1ccco1 (stereo partly drawn),101
12,O=C(NC[C@H]1O[C@@H]1c1ccccc1)C(F)(F)F (racemic),79
13,CCCCc1nc2c(N)nc3ccc(OCC(=O)N(CCOC)CCOC)cc3c2n1C,125 to 128
14,O=C(O)/C=C/c1ccc(-c2nc3c(=O)n(CC4CCC4)c(=O)n(CC4CCC4)c3[nH]2)cc1,> 300
15,Cc1noc(NS(=O)(=O)c2ccc(Cc3ccccc3)s2)c1Br,49 to 50
16,CCOC(=O)C1=C(COCC#CC(O)c2ccccc2)NC(C)=C(C(=O)OC)C1c1cccc(Cl)c1Cl (stereo not drawn),160 to 164
17,CN(C)c1c(C#N)c(C(F)(F)F)nn1-c1c(Cl)cc(C(F)(F)F)cc1Cl,105 to 107
18,CCC(CC)n1ccn(-c2ccc(N3CCN(c4ccc(OC)cc4)CC3)cc2)c1=O,196
19,COc1cc(C(=O)NS(=O)(=O)c2ccccc2)ccc1Cn1nc(OC)c2ccc(NC(=O)OC3CCCC3)cc21,246 to 248
20,CC1(c2ccccc2)CN(c2ccnc(NC(=O)NCc3ccccn3)c2)C(=O)O1 (stereo not drawn),194 to 195
21,COCCOc1ccc(CCCNS(=O)(=O)c2ccccc2[N+](=O)[O-])c(Oc2ncc(C(F)(F)F)cc2Cl)c1,126
22,COc1ccc(CSc2nnc(CCl)s2)cc1,60.5 to 63.5
23,CN(Cc1ccco1)c1nccc(Oc2ccc(NC(=O)c3cc(F)cc(N4CCCCC4)c3)c3ccccc23)n1,155 to 156
24,Cc1ccc2c(O)ccnc2c1,233 to 235
25,COc1cc(CC(=O)NCCOCc2ccc(C)c(C)c2)ccc1OCCN,60 to 62

row,Structure (SMILES),melting point [°C]
1,Nc1c2ccccc2nc2c(=O)[nH][nH]c(=O)c12,167 to 168
2,Cc1nc(OCC(F)(F)F)c([N+](=O)[O-])c(N2CCC(c3ccccc3)CC2)n1,114 to 117
3,O=Cc1ccc(NCc2cccc(Cl)c2)cn1,102 to 105
4,COc1ccc(-c2nnn(-c3ccc(F)cc3Cl)c2N)cc1,136 to 141
5,O=c1oc(-c2c(F)cccc2Cl)nn1-c1ccccc1Cl,92 to 95
6,O=C1c2ccc(OCCOCCOCCO)cc2C(=O)c2ccc(OCCOCCOCCO)cc21,110
7,CCCC1=C(C#N)C(c2cccnc2)c2c[nH]nc2N1 (stereo not drawn),201
8,CC(C)(C)OC(=O)NCc1ccc(N)cc1,74.4
9,CCOC(=O)C(=CNc1nnc(N2CCOC(C)C2)s1)C(=O)OCC (stereo not drawn),89 to 91
10,C=CCC(C)(C)C(NC(=O)c1ccc(Cl)cc1)NC(=NC#N)Nc1cccnc1 (stereo not drawn),97 to 98
11,CCOC(=O)c1ccc(OC(=O)CCCC(=O)Oc2ccc(C(=O)OCC)cc2)cc1,81 to 82
12,CCOC(=O)CNC(=O)Oc1c(CC)n(C)ccc1=O,99 to 100
13,CS(=O)(=O)c1cccc(NC(=O)c2cnn3c(C(F)F)cc(-c4ccc(C(F)(F)F)c(F)c4)nc23)c1,238
14,O=C(CCO)N[C@H]1CC[C@H](CCN2CCN(c3nccc4c3CCO4)CC2)CC1,173
15,CCOCCCN(C)Cc1ccc(NC(=O)C2=Cc3cc(-c4ccc(C)cc4)ccc3OCC2)cc1,119 to 122
16,CCOc1cc2c(O)cc(C)nc2nc1C,281 to 284
17,C(#Cc1cnc2ccccc2c1)CCN1CCN(c2ccccn2)CC1,76.5 to 77
18,N[C@@H]1CCc2c(ccc(OCc3ccccc3)c2CO)[C@H]1O (relative stereo),148 to 150
19,CCCCC(=O)Nc1cccc2c1C(=O)N(C1CCC(=O)NC1=O)C2=O (stereo not drawn),178 to 179
20,CCCC1=C(C#N)C(c2cccc3ccccc23)c2c[nH]nc2N1 (stereo not drawn),263
21,CC(C)On1cnc2c(N)nc3ccccc3c21,224 to 225
22,Cc1ccc(Cl)c(C)c1Nn1cc(C#N)c(=O)[nH]c1=O,> 320
23,COc1cccc2c1C(C)(C)CC(O)(C(F)(F)F)C2Nc1cccc2c1cnn2C (stereo not drawn),172 to 174
